Assay results reported in ChEMBL document CHEMBL1201862, “PubChem BioAssay data set” (2004).
Activity calls are given as the source filed them.

Legend:
[1] = target: Estrogen receptor beta (Homo sapiens, UniProt Q92731);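 further: recombinant ER-beta bound to coactivator SRC1 peptide in presence of estradiol agonist; inhibitors block coactivator peptide binding and lower the FRET signal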
[2] = Luminescence-based dose response cell-based high throughput screening assay for cytotoxic compounds using the IEC-6 intestinal epithelial cell line. [Related pubchem assays: 1858 (Summary AID.), 1825 (Counterscreen.), 1907 (Confirmation screen.)]; type: functional
[3] = cytotoxicity in HEK-293T cells, dose response, cytotoxicity control for TCR NF-kB inhibitor project, luminescence, T-cell screen hits (AID 489026); type: functional, cell-based;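 further: cells exposed to compound about 14 hours before the viability readout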
[4] = target: Lytic switch protein BZLF1 (Epstein-Barr virus (strain B95-8) (HHV-4) (Human herpesvirus 4), UniProt P03206); assay: EBV ZTA inhibitors, dose response, counter-screen for EBNA-1 inhibitor project, biochemical, fluorescence polarization, Epstein-Barr virus, 1536-well (AID 2377); set-up: species or system human gammaherpesvirus 4;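 further: fluorescence polarization of Cy5-labelled ZRE DNA probe bound by purified Zta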
Chain of Lytic switch protein BZLF1 (P03206 whole entry): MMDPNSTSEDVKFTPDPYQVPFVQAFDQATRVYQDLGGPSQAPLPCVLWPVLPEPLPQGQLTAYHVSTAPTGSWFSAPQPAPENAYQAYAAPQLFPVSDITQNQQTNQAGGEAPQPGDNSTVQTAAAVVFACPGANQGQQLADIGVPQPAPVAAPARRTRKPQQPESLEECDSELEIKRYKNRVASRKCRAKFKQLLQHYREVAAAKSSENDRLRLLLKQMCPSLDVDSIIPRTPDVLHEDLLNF

[5] = target: Epstein-Barr nuclear antigen 1 (Epstein-Barr virus (strain B95-8) (HHV-4) (Human herpesvirus 4), UniProt P03211); assay: EBNA-1 inhibitors, dose response, biochemical, fluorescence polarization, 1536-well (AID 2381); set-up: species or system human gammaherpesvirus 4;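 further: fluorescence polarization of a Cy5 DNA probe bound by EBNA-1 protein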
[6] = target: Sphingosine 1-phosphate receptor 2 (Homo sapiens, UniProt O95136); assay: Dose Response Cell Based Assay for Agonists of the S1P2 Receptor of Purchased Analogues. [Related pubchem assays: 729, 843, 854, 736 ]; type: functional
[7] = target: Prothrombin (Homo sapiens, UniProt P00734); assay: Thrombin 1536 HTS Dose Response Confirmation. [Related pubchem assays: 1046 (Thrombin 1536 HTS; hits were confirmed in this assay)]; type: functional
[8] = NIH-3T3 fibroblast cytotoxicity, dose response, cytotoxicity control, cell-based, fluorescence, Alamar Blue, secondary assay (AID 2327); type: functional;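 further: NIH-3T3 mouse fibroblasts cultured with fluconazole at 8 µg/mL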
[9] = C. albicans growth with fluconazole, confirmation, fluorescence, retest (AID 2467); type: functional, cell-based
[10] = target: Ephrin type-A receptor 4 (Mus musculus, UniProt Q03137); assay: inhibitors of EphA4 binding to KYL peptide, primary screen, biochemical, colorimetric, mouse EphA4 (AID 689); type: functional
[11] = target: fMet-Leu-Phe receptor (Homo sapiens, UniProt P21462); assay: FPR ligands, dose response (AID 519); type: functional
[12] = target: Voltage-gated inwardly rectifying potassium channel KCNH2 (Homo sapiens, UniProt Q12809); assay: hERG protection from proarrhythmic block, potency, dose response, cell-based, thallium flux (AID 2121); type: ADME
Chain of Voltage-gated inwardly rectifying potassium channel KCNH2 (Q12809 whole entry): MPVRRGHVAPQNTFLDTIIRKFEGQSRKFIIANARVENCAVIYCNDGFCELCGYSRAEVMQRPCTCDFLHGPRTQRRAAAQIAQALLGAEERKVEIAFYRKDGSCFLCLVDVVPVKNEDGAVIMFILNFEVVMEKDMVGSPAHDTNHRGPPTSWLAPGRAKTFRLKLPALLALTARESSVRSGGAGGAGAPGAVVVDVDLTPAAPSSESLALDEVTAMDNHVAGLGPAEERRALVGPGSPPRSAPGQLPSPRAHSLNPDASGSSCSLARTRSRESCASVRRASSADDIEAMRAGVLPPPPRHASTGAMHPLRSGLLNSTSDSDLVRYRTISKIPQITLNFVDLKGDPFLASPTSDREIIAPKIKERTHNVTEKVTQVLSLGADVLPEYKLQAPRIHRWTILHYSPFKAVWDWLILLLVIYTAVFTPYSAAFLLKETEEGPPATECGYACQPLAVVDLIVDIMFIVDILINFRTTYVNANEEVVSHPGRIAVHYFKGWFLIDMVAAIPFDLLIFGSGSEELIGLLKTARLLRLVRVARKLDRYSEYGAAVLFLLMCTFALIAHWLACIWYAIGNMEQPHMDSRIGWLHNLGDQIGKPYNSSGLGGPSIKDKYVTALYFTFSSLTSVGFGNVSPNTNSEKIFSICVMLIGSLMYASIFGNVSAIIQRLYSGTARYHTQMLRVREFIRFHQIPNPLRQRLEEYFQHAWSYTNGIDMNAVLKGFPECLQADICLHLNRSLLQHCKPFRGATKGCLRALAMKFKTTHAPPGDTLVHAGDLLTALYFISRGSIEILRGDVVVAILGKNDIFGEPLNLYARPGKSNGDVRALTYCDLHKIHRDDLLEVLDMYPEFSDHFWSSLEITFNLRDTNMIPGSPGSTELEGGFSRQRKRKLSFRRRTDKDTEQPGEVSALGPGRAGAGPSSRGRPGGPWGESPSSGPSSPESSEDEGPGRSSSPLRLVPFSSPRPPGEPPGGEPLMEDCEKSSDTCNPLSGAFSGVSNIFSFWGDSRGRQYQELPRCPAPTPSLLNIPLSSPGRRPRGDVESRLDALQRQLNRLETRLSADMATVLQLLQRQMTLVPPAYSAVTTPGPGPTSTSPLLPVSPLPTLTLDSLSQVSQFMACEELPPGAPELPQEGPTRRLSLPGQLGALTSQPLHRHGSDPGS

[13] = target: Cytochrome P450 2C9 (Homo sapiens, UniProt P11712)
[14] = control 3'UTR Renilla luciferase suppression, dose response, counter-screen for Shn3 inhibitor project, cell-based, Clone20-Shn3RL, cherry-picked (AID 624133); type: functional
[15] = HepG2 cell cytotoxicity, dose response, cytotoxicity control for Shn3 inhibitor project, CellTiter-Glo, cherry-picked (AID 624134); type: functional, cell-based
[16] = reduction of Shn3 3'UTR firefly luciferase signal, dose response, Schnurri-3 inhibitor project, cell-based, Clone20 osteoblasts, cherry-pick, set 2 (AID 720490); type: functional;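 further: actives lower the luminescence signal as inhibitors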
[17] = Shn3 3'UTR reporter inhibitors, dose response, cell-based, Clone20 osteoblasts, firefly luciferase, cherry-picked (AID 624132); type: functional;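 further: firefly luciferase luminescence from reporter carrying the Shn3 3'UTR in osteoblasts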
[18] = target: Cytochrome P450 2C19 (Homo sapiens, UniProt P33261); assay: Cytochrome panel assay with activity outcomes. Panel member name: p450-cyp2c19 Compounds with AC50 equal or less than 10 uM are considered active; type: functional; conditions: read-out: AC50
[19] = target: Caspase-6 (Homo sapiens, UniProt P55212); assay: human caspase-6 inhibitors, dose response, biochemical, VEID-R110 fluorescence, cherry-pick (AID 720632)
[20] = target: Major prion protein (Homo sapiens, UniProt P04156); type: functional, cell-based
[21] = cells
[22] = Luminescence Cell-Based Dose Response HTS to Identify Activators of Luciferase Translation or Activity in H4 […] Cells. [Related pubchem assays: 1829 (Project Summary), 1814 (Primary HTS)]; type: functional
[23] = Luminescence Cell-Based Dose Response to Identify Activators of Luciferase Translation or Activity in H4-C Neuroglioblastoma Cells. [Related pubchem assays: 1829 (Project Summary), 1814 (Primary HTS)]; type: functional
[24] = Luminescence Cell-Based Dose Confirmation to Identify Activators of 5'UTR Stem-Loop Driven Alpha-Synuclein mRNA Translation in H4 Neuroglioblastoma Cells. [Related pubchem assays: 1829 (Project Summary), 1814 (Primary HTS)]; type: functional
[25] = tested on: H4; assay: Luminescence Cell-Based Dose Response HTS to Identify Activators of 5'UTR Stem-Loop Driven Prion Protein mRNA Translation in H4 Neuroglioblastoma Cells. [Related pubchem assays: 1829 (Project Summary), 1814 (Primary HTS)]; type: functional; conditions: Homo sapiens
[26] = Luminescence Cell-Based Dose Response to Identify Activators of 5'UTR Stem-Loop Driven Prion Protein mRNA Translation in H4-C Neuroglioblastoma Cells. [Related pubchem assays: 1829 (Project Summary), 1814 (Primary HTS)]; type: functional
[27] = target: T1, Voltage-gated N-type calcium channel alpha-1B subunit/Amyloid beta A4 precursor protein-binding family A member 1 (Homo sapiens, UniProt Q00975+Q02410); type: protein assay
T1 sequence (Q00975 whole entry): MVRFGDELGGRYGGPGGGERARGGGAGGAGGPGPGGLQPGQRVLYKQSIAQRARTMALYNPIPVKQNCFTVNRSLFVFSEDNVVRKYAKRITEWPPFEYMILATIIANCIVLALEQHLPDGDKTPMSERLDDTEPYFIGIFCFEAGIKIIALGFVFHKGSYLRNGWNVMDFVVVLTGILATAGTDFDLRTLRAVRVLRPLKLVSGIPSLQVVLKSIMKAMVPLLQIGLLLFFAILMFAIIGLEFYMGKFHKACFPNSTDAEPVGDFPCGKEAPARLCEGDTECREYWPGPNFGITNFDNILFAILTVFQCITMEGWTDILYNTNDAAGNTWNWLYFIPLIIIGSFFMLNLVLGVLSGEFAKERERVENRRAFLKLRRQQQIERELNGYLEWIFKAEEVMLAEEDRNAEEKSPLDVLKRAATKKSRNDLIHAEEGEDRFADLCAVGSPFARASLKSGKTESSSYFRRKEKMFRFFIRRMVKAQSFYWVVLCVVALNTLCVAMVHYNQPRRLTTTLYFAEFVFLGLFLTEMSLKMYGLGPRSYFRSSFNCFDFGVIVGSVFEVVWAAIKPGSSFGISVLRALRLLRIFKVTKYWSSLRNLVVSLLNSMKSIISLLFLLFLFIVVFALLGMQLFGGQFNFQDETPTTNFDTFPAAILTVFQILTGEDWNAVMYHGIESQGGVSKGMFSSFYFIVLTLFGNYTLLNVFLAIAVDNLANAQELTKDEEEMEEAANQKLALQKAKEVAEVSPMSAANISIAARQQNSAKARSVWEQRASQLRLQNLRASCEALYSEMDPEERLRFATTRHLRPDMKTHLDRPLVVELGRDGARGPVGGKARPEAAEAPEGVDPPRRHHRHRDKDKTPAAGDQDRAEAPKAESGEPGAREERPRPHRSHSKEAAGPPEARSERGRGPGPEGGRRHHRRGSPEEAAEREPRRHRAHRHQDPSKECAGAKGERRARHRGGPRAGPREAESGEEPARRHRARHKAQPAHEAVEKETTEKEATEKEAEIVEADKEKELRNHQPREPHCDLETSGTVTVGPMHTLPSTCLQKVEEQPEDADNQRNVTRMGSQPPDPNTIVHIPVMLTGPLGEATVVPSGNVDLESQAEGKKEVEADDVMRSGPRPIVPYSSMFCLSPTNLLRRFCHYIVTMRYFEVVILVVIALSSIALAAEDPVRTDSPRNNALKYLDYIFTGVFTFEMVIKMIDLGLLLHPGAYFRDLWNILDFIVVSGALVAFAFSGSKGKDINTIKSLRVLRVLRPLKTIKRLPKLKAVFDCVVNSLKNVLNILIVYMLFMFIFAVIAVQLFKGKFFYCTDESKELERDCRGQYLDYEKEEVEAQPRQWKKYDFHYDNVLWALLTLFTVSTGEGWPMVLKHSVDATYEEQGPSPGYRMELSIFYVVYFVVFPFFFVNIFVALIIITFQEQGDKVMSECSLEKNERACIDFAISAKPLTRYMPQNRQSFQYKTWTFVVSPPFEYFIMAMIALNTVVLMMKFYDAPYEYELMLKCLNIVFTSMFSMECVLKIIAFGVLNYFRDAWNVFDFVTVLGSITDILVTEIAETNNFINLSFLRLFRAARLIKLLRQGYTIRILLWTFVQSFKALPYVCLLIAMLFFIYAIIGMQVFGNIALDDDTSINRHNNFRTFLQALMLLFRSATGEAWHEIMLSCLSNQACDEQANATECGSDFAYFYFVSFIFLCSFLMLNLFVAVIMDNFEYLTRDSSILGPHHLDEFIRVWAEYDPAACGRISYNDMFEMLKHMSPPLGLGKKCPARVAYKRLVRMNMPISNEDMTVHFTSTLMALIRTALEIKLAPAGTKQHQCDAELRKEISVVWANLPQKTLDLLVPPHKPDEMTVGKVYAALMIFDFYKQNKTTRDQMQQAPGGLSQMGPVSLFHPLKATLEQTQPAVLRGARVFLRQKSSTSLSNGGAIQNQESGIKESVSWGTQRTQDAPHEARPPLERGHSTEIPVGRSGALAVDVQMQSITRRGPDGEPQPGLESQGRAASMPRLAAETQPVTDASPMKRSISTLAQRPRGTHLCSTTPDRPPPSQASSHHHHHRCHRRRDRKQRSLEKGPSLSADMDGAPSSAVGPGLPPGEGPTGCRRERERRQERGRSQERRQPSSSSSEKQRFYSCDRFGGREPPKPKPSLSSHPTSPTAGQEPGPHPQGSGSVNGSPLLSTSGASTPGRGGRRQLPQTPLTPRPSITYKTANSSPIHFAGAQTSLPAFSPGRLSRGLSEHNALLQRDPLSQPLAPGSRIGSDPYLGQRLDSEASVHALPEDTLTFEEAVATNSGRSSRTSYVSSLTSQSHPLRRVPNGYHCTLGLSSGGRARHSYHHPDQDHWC
T1 sequence (Q02410 whole entry): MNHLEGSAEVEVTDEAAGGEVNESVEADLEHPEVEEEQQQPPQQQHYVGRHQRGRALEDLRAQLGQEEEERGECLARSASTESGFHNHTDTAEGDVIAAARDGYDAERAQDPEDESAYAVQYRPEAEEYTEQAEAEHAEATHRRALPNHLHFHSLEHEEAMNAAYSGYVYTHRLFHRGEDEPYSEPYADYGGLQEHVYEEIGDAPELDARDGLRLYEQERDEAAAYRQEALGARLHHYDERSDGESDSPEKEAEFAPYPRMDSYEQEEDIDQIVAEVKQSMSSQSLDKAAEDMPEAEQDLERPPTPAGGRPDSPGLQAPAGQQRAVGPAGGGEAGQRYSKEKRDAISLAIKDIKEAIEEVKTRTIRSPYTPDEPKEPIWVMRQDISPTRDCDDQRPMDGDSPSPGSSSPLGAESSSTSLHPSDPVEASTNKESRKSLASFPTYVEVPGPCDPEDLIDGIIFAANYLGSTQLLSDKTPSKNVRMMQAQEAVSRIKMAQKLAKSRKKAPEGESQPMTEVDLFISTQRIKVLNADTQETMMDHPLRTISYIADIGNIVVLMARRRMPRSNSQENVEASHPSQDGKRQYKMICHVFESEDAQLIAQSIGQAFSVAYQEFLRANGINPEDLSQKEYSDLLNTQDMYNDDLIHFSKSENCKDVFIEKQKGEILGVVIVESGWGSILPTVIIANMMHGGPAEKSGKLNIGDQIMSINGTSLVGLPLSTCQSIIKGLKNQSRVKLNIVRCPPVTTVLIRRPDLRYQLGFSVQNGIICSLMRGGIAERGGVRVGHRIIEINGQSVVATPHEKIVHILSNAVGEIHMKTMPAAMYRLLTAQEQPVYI

[28] = target: T1, Voltage-gated N-type calcium channel alpha-1B subunit/Amyloid beta A4 precursor protein-binding family A member 1; type: protein assay; remark: listed apart in the source
[29] = inhibitors of intracellular T. cruzi replication, confirmation, NIH3T3 host cells, beta-gal luminescence (AID 2044); type: functional, cell-based;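 further: intracellular parasites grown in NIH/3T3 mouse fibroblasts as host cells; luminescent beta-galactosidase reporter signal from transgenic T. cruzi replicating inside host cells; inhibitors lower the luminescence signal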
[30] = cytotoxicity toward NIH3T3 fibroblasts, dose response, counter-screen, cell-based, ATP luminescence, mouse fibroblasts (AID 2010); type: functional;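 further: cells exposed to compound for about 90 hours before reading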
[31] = target: Nonstructural protein 1 (Influenza A virus, UniProt Q194T2); type: functional, Influenza A virus (A/California/07/2009(H1N1))
[32] = cells; type: functional, cell-based
[33] = tested on: INS1; assay: beta cell apoptosis inhibitors, cytokine rescue, dose response, luminescence, retest (AID 449756); type: functional, cell-based; conditions: Rattus norvegicus;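 further: cell death triggered by IL-1 beta plus TNF-alpha plus IFN-gamma mixture; protective hits raise ATP signal compared with cytokine alone wells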
[34] = cells; type: functional, cell-based; remark: listed apart in the source
[35] = TRPM1 promoter luciferase reporter signal decrease, dose response, MITF inhibitor project, cell-based, SK-MEL-5, dry powder, set 8 (AID 624430); type: functional
[36] = MITF Orthogonal Assay: SK-MEL-5 CTG Assay Measured in Cell-Based System Using Plate Reader - 2084-02_Inhibitor_Dose_DryPowder_Activity_Set7.; type: functional
[37] = MITF: Counter assay: A375 proliferation Measured in Cell-Based System Using Plate Reader - 2084-03_Inhibitor_Dose_DryPowder_Activity_Set8.; type: functional; conditions: A-375
[38] = Artemis endonuclease inhibitor potency, dose response, biochemical, fluorescence intensity (AID 720701); type: functional;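 further: Artemis endonuclease enzyme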
[39] = tested on: Streptococcus; assay: Group A Streptococcus viability loss, dose response, counter-screen for streptokinase expression inhibitor project, luminescence, BacTiterGlo (AID 1915); type: functional, organism-based;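 further: potency for reduction of bacterial viability or growth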
[40] = tested on: Streptococcus sp. 'group A'; assay: growth inhibition of control SK(-) GAS strain, dose response, counter-screen for streptokinase expression inhibitor project, luminescence, kanamycin, BacTiterGlo, confirmation (AID 1900); type: functional, organism-based
[41] = target: T2, Streptokinase A (Streptococcus pyogenes serotype M1, UniProt P10520); assay: S. pyogenes streptokinase expression inhibitors, potency, dose response, plasminogen activation absorbance, OD405 (AID 1914); type: functional, Streptococcus pyogenes M1 GAS;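 further: secreted streptokinase activity via plasminogen activation per viability signal from cell pellet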
T2 sequence (P10520 whole entry): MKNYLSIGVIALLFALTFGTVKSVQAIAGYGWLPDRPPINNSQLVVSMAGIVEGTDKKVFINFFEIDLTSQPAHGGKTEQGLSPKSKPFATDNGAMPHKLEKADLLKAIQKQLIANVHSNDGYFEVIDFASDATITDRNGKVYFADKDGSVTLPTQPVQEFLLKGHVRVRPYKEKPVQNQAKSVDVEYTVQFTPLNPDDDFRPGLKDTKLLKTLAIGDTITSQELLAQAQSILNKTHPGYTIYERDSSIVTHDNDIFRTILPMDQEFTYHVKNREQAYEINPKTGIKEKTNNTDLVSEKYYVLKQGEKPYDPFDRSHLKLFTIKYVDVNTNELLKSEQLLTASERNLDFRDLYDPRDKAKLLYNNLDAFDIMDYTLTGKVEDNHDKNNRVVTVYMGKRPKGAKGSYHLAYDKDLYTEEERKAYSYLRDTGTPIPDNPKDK

Chain of Estrogen receptor beta (Q92731 whole entry): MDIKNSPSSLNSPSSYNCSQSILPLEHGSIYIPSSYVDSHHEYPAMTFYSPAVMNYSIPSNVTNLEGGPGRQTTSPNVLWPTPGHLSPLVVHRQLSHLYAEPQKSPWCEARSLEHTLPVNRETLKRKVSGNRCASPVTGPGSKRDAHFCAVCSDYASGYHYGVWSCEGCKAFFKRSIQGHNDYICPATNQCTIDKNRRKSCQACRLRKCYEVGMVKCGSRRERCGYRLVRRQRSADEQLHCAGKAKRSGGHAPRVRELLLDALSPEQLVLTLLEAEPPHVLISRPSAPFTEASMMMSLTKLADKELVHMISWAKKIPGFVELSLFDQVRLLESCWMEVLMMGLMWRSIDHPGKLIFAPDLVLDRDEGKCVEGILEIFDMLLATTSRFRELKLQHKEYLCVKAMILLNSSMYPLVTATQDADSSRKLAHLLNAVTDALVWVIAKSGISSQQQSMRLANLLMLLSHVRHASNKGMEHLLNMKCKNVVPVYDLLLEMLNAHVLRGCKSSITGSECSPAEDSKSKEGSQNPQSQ

Structure (SMILES): O=S(=O)(c1cccc(-c2nc3ccccc3s2)c1)N1CCOCC1
- IC50 [1]: > 50 µM (not active)

Structure (SMILES): CC(=O)O[C@H]1C(=O)[C@@]2(C)C([C@H](OC(=O)c3ccccc3)[C@]3(O)C[C@H](OC(=O)[C@H](O)[C@@H](NC(=O)Cc4ccccc4)c4ccccc4)C(C)=C1C3(C)C)[C@]1(OC(C)=O)CO[C@@H]1C[C@@H]2O (some centres not stated)
- IC50 [2]: 396 nM (active)
- IC50 [3]: > 80 µM (inactive)

Structure (SMILES): CNS(=O)(=O)c1cccc(C(=O)OCC(=O)Nc2ccc(-c3nc4ccc(C)cc4s3)cc2)c1
- IC50 [4]: > 111 µM (not active)
- IC50 [5]: 5.63 µM (active)

Structure (SMILES): Cc1cc(C(=O)CN2C(=O)C(=O)N(Cc3ccco3)C2=O)c(C)n1Cc1ccccc1
- EC50 [6]: > 30 µM (not active)

Structure (SMILES): Cc1c(Cl)cccc1NC(=O)Cc1ccc([N+](=O)[O-])cc1
- IC50 [7]: > 50 µM (not active)

Structure (SMILES): Cc1ccc2cc(C=C(C#N)C#N)c(N3CCCCC3)nc2c1
- EC50 [8]: 46.4 µM (active)
- EC50 [9]: > 38 µM (not active)
- IC50 [10]: 24.4 µM (active)

Structure (SMILES): COc1ccc(NC(=O)C2C(=O)NC3(C)CC2c2ccccc2O3)cc1 (configuration not stated)
- Ki [11]: > 66.7 µM (inactive)

Structure (SMILES): COc1ccccc1NC(=S)NC(=O)c1ccc(-c2ccc(Cl)cc2)o1
- EC50 [12]: 100 nM (active)
- AC50 [13]: inconclusive

Structure (SMILES): CC(C)CN(CCC(=O)O)CC(C)C
- IC50 [1]: > 50 µM (not active)

Structure (SMILES): Cc1ccccc1OCCOC(=O)c1cc(S(=O)(=O)N2CCCCC2)ccc1N1CCOCC1
- AC50 [14]: > 70 µM (inactive)
- AC50 [15]: > 70 µM (inactive)
- AC50 [16]: 4.28 µM (active)
- AC50 [17]: 3.79 µM (active)

Structure (SMILES): Cc1cc(C(=O)CN2C(=O)C(=O)N(Cc3ccccc3)C2=O)c(C)n1Cc1ccco1
- EC50 [6]: > 30 µM (not active)

Structure (SMILES): COc1cc(C2C(C(=O)c3ccc(C)o3)=C(O)C(=O)N2CCc2ccccc2)ccc1O (configuration not stated)
- AC50 [18]: 11.2 µM (inconclusive)
- Ki [11]: 19.7 µM (inactive)

Structure (SMILES): COc1ccc(CCNC(=O)COC(=O)c2ccc([N+](=O)[O-])o2)cc1
- AC50 [19]: 24.1 µM (active)

Structure (SMILES): C=CCn1c(=S)[nH]c2cc(-c3ccccc3)sc2c1=O
- EC50 [12]: 1110 nM (active)

Structure (SMILES): COc1cccc(N2CC(=O)C(c3nc4ccccc4s3)=C2N)c1
- IC50 [20]: 5.11 µM (active)
- IC50 [21]: > 138 µM (inactive)

Structure (SMILES): COCc1nc2oc3ccc(C)cc3c(=O)c2cc1C(=O)OC
- EC50 [22]: < 100 nM (inconclusive)
- EC50 [23]: 402 nM (active)
- EC50 [24]: 282 nM (active)
- EC50 [25]: > 120 µM (not active)
- EC50 [26]: 433 nM (active)

Structure (SMILES): O=C(Nc1nc2cc3c(cc2s1)OCCO3)c1ccc(N2C(=O)CCC2=O)cc1
- IC50 [4]: 15.1 µM (not active)
- IC50 [27]: > 50 µM (inactive)
- IC50 [5]: 15.6 µM (not active)
- IC50 [28]: 23 µM (active)

Structure (SMILES): COc1cccc(C(NC(C)=O)c2ccc3cccnc3c2O)c1 (configuration not stated)
- EC50 [29]: 1.07 µM (active)
- AC50 [14]: 1.04 µM (active)
- AC50 [15]: 2.61 µM (active)
- EC50 [30]: 1.07 µM (active)
- IC50 [2]: 1480 nM (active)
- EC50 [8]: 3.88 µM (inconclusive)
- IC50 [31]: 14.3 µM (active)
- EC50 [32]: > 350 µM (not active)
- AC50 [33]: 886 nM (active)
- AC50 [17]: 1.39 µM (active)
- EC50 [34]: 7.47 µM (active)
- EC50 [9]: 1.38 µM (active)

Structure (SMILES): CSc1nc(-c2ccco2)nn1C(=O)c1ccco1
- IC50 [7]: 0.22 µM (active)

Structure (SMILES): COCOCCn1cc(CN2CCS(=O)(=O)N(Cc3ccc(-c4ccc(Cl)c(Cl)c4)cc3)C(C(C)C)C2=O)nn1 (configuration not stated)
- AC50 [14]: 7.09 µM (active)
- AC50 [15]: > 70 µM (inactive)
- AC50 [16]: 1.86 µM (active)
- AC50 [17]: 1.35 µM (active)

Structure (SMILES): O=C1C(Nc2ccc(F)cc2F)=C(N2CCCCC2)C(=O)c2ccccc21
- AC50 [35]: 0.931 µM (active)
- AC50 [36]: 3.64 µM (active)
- AC50 [37]: 21.8 µM (active)

Structure (SMILES): CN1C(=O)c2cc(NC(=O)C3CC3)ccc2OC[C@H]2O[C@@H](CC(=O)O)CC[C@@H]21
- AC50 [19]: 23.1 µM (active)

Structure (SMILES): CCN1CCN(C2=C(Nc3ccc(OC)cc3)C(=O)c3ccccc3C2=O)CC1
- AC50 [35]: 6.87 µM (active)
- AC50 [36]: 12.2 µM (active)
- AC50 [37]: > 70 µM (inactive)

Structure (SMILES): COc1cc2c(C#N)c(N3CCN(c4ccccc4OC)CC3)nc(N)c2c(N)n1
- IC50 [38]: > 20 µM (inactive)
- EC50 [39]: > 150 µM (not active)
- EC50 [40]: 4.63 µM (active)
- EC50 [41]: 22.6 µM (active)
